# Measurements taken from patent US20060089395A1, “Nf-kb activation inhibitors” (priority 2002, published 2006).
# Like-named read-outs stand apart in the source and are kept apart here.
# What was measured:
# Format in all cases: cell-based, human
# IL-6 = assay: Inhibition of IL-6 production by TNFα stimulation in synovial fibroblasts derived from a rheumatoid patient (ELISA); settings: for IC50: synovial fibroblasts, read-out: Inhibition against Mediator Release IC50(nM) IL-6; for Inhibitory ratios (%) at 1000 nM, IL-6: in parentheses
# Experimental: (§1) Synovial fibroblasts (Human Synoviocyte (RA-Positive), Toyobo, T4040-05) were cultured for 3 days in a medium containing 10 ng/ml of TNFα and a test compound. IL-6 and IL-8 in the supernatant were measured by the ELISA method, and PGE2 (prostaglandin E2) was measured by the EIA method.
# IL-8 = assay: Inhibition of IL-8 production by TNFα stimulation in synovial fibroblasts derived from a rheumatoid patient (ELISA); settings: Homo sapiens, Fibroblast; for inhibition at 1 µM: 1000 nM, in parentheses, read-out: Inhibitory ratios (%) at 1000 nM, IL-8; for IC50: synovial fibroblasts, read-out: Inhibition against Mediator Release IC50(nM) IL-8
# Experimental: as §1
# PGE2 = assay: Inhibition of PGE2 production by TNFα stimulation in synovial fibroblasts derived from a rheumatoid patient (EIA); settings: for IC50: synovial fibroblasts, read-out: Inhibition against Mediator Release IC50(nM) PGE2; for Inhibitory ratios (%) at 1000 nM, PGE2: in parentheses
# Experimental: as §1
# NF-κ B = assay: Inhibitory activity of NF-κ B activation, luciferase reporter assay in HepG2 under TNF-α stimulation
# In short: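 HepG2 cells transiently transfected with a luciferase reporter driven by five tandem NF-κB binding sites, then incubated 6–24 h. Stimulated with TNF-α (40 ng/ml) with or without test compound for 4 h. Intracellular luciferase read by chemiluminescence; inhibition expressed relative to activity without compound.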
# [1] = Homo sapiens, Fibroblast, comparison compounds, TNFα stimulation
# [2] = comparison compounds, TNFα stimulation
# [3] = 1 μg/mL, HepG2, TNF-α (40 ng/ml), 4 hours
# [4] = 10 μg/mL, HepG2, TNF-α (40 ng/ml), 4 hours
# [5] = Homo sapiens, 1 μg/mL, HepG2, TNF-α (40 ng/ml), 4 hours, read-out: Inhibitory Ratio of NF-κ B Activation(%) Drug Concentration 1 μg/mL
# [6] = Homo sapiens, 10 μg/mL, HepG2, TNF-α (40 ng/ml), 4 hours, read-out: Inhibitory Ratio of NF-κ B Activation(%) Drug Concentration 10 μg/mL
Compound,IC50 (IL-6; [1]) [nM],inhibition at 1 µM (IL-8; 72 h) [%],IC50 (IL-8; [2]) [nM],IC50 (PGE2; [1]) [nM],Inhibitory Ratio of NF-κ B Activation(%) Drug Concentration 1 μg/mL (NF-κ B; [3]) [%],Inhibitory Ratio of NF-κ B Activation(%) Drug Concentration 10 μg/mL (NF-κ B; [4]) [%],further results
O=C(Nc1ccc(F)cc1F)c1cc(I)ccc1O [reference compound],85,-23,> 1000,730,,,
"O=C(Nc1ccc(Cl)cc1C(F)(F)F)c1cc(Cl)ccc1O [Reference Example 3, N-[4-chloro-2-(trifluoromethyl)phenyl]-5-chloro-2-hydroxybenzamide, reference compound]",> 1000,-43,> 1000,> 1000,,,"Inhibitory ratios (%) at 1000 nM, IL-6 (IL-6): −17%; Inhibitory ratios (%) at 1000 nM, PGE2 (PGE2): 20%"
CC(=O)c1ccc(NC(=O)c2cc(I)ccc2O)cc1 [reference compound],82,-5.9,> 1000,> 1000,,,"Inhibitory ratios (%) at 1000 nM, PGE2 (PGE2): −3.9%"
"O=C(Nc1ccc(C(F)(F)F)cc1C(F)(F)F)c1cc(Cl)ccc1O [Reference Example 1, N-[2,4-bis(trifluoromethyl)phenyl]-5-chloro-2-hydroxybenzamide, reference compound]",202,-70,> 1000,> 1000,,,"Inhibitory ratios (%) at 1000 nM, PGE2 (PGE2): 1.2%"
O=C(Nc1cc(Cl)cc(Cl)c1)c1cc(Cl)ccc1O [Compound No. 125],,,,,84.5,96.8,"IC50 (IL-6; 10 ng/ml TNFα, 3 days): 903 nM; IC50 (PGE2; 10 ng/ml TNFα, 3 days): 966 nM"
O=C(Nc1cc(C(F)(F)F)cc(C(F)(F)F)c1)c1cc(C(F)(F)F)ccc1O [Compound No. 25],,,,,96.4,99.6,"IC50 (IL-6; 10 ng/ml TNFα, 3 days): 452 nM"
"O=C(Nc1ccc(Cl)c(Cl)c1)c1cc(Br)ccc1O [drawing 563, reference compound]",205,-12,> 1000,208,,,
O=C(Nc1nc(C(F)(F)F)c(Br)s1)c1cc(Br)ccc1O [Compound No. 187],,,,,85.3,94.4,"IC50 (IL-6; 10 ng/ml TNFα, 3 days): 649 nM; IC50 (PGE2; 10 ng/ml TNFα, 3 days): 414 nM"
O=C(Nc1cc(Br)cc(C(F)(F)F)c1)c1cc(Br)ccc1O [Compound No. 86],,,,,96.7,98.7,"IC50 (IL-6; 10 ng/ml TNFα, 3 days): 565 nM; IC50 (PGE2; 10 ng/ml TNFα, 3 days): 562 nM"
"O=C(Nc1ccc(Cl)c(C(F)(F)F)c1)c1cc(Br)ccc1O [Reference Example 5, N-[4-chloro-3-(trifluoromethyl)phenyl]-5-bromo-2-hydroxybenzamide, reference compound]",91,16,> 1000,57,,,
COc1ccc(C(F)(F)F)cc1NC(=O)c1cc(Br)ccc1O [Compound No. 94],,,,,76.6,93.4,"IC50 (PGE2; 10 ng/ml TNFα, 3 days): 266 nM"
"O=C(Nc1ccc(C(F)(F)F)cc1)c1cc(Cl)ccc1O [Reference Example 6, N-[4-(trifluoromethyl)phenyl]-5-chloro-2-hydroxybenzamide, reference compound]",> 1000,4.2,> 1000,> 1000,,,"Inhibitory ratios (%) at 1000 nM, IL-6 (IL-6): 36%; Inhibitory ratios (%) at 1000 nM, PGE2 (PGE2): −24%"
O=C(Nc1ccc(-c2ccccc2)cc1)c1cc(C(F)(F)F)ccc1O [reference compound],140,-67,> 1000,292,,,
"O=C(Nc1cccc(C(F)(F)F)c1)c1cc(Br)ccc1O [Reference Example 4, N-[3-(trifluoromethyl)phenyl]-5-bromo-2-hydroxybenzamide, reference compound]",690,16,> 1000,413,,,
O=C(Nc1cc(C(F)(F)F)cc(C(F)(F)F)c1)c1cc(CCc2ccccc2)ccc1O [Compound No. 24],,,,,92.3,98.3,"IC50 (IL-6; 10 ng/ml TNFα, 3 days): 593 nM"
"O=C(Nc1ccc(C(F)(F)F)cc1Cl)c1cc(Br)ccc1O [Reference Example 7, N-[2-chloro-4-(trifluoromethyl)phenyl]-5-bromo-2-hydroxybenzamide, reference compound]",> 1000,16,> 1000,> 1000,,,"Inhibitory ratios (%) at 1000 nM, IL-6 (IL-6): 27%; Inhibitory ratios (%) at 1000 nM, PGE2 (PGE2): 10%"

Compound,IC50 (IL-6; [1]) [nM],inhibition at 1 µM (IL-8; 72 h) [%],IC50 (IL-8; [2]) [nM],IC50 (PGE2; [1]) [nM],Inhibitory Ratio of NF-κ B Activation(%) Drug Concentration 1 μg/mL (NF-κ B; [3]) [%],Inhibitory Ratio of NF-κ B Activation(%) Drug Concentration 10 μg/mL (NF-κ B; [4]) [%],further results
"O=C(Nc1ccc(F)cc1F)c1cc([N+](=O)[O-])ccc1O [drawing 564, reference compound]",248,-4.5,> 1000,62,,,
"O=C(Nc1cc(C(F)(F)F)cc(C(F)(F)F)c1)c1cc(C#Cc2ccccc2)ccc1O [Compound No. 22, N-[3,5-bis(trifluoromethyl)phenyl]-2-hydroxy-5-(phenylethynyl)-benzamide]",,,,,,,"inhibition at 1 µg/mL (NF-κ B; [5]): 83.9%; inhibition at 10 µg/mL (NF-κ B; [6]): 97.1%; IC50 (IL-6; Homo sapiens, Fibroblast, 72 h, 10 ng/ml TNFα, 3 days): 665 nM; IC50 (IL-8; 72 h, 10 ng/ml TNFα, 3 days): 869 nM"
O=C(Nc1cc(Cl)cc(Cl)c1)c1cc(Br)cc(Br)c1O [Compound No. 128],,,,,91.4,95.1,
CCCCCCOc1ccc(S(C)(=O)=O)cc1NC(=O)c1cc(Cl)ccc1O [Compound No. 165],,,,,95.9,99.4,
CCN(CC)S(=O)(=O)c1ccc(OC)c(NC(=O)c2cc(Cl)ccc2O)c1 [Compound No. 155],,,,,11.2,90.2,
O=C(Nc1ccc(Cl)nc1)c1cc(Cl)ccc1O [compound 240],,,,,14.3,92.3,
"O=C(Nc1cc(C(F)(F)F)ccc1C(F)(F)F)c1cc(Cl)ccc1O [Compound No.81, N-[2,5-bis(trifluoromethyl)phenyl]-5-chloro-2-hydroxybenzamide]",,,,,,,"inhibition at 0.1 µg/mL (NF-κ B; Homo sapiens, HepG2, 4 h, 0.1 μg/ml, comparison table, reporter assay, read-out: Inhibitory Ratio of NF-κB Activation (%) 0.1 μg/ml): 27%; inhibition at 1 µg/mL (NF-κ B; Homo sapiens, HepG2, 4 h, 1 μg/ml, comparison table, reporter assay, read-out: Inhibitory Ratio of NF-κB Activation (%) 1 μg/ml): 95%; inhibition at 10 µg/mL (NF-κ B; Homo sapiens, HepG2, 4 h, 10 μg/ml, comparison table, reporter assay, read-out: Inhibitory Ratio of NF-κB Activation (%) 10 μg/ml): 96.3%; inhibition at 1 µg/mL (NF-κ B; [5]): 95%; inhibition at 10 µg/mL (NF-κ B; [6]): 96.3%"
Cc1ccc(C(=O)Nc2cc(C(F)(F)F)cc(C(F)(F)F)c2)c(O)c1 [Compound No. 53],,,,,93.3,94.5,
CC(C)(C)c1cc(NC(=O)c2cc(Cl)cnc2O)cc(C(C)(C)C)c1 [Compound No. 184],,,,,53.6,63.8,
COc1ccc(O)c(C(=O)Nc2cc(C(F)(F)F)cc(C(F)(F)F)c2)c1 [Compound No. 33],,,,,30.7,97.0,
"O=C(Nc1nc(-c2cc(F)ccc2F)cs1)c1cc(Cl)ccc1O [Compound No. 263, 5-Chloro-2-hydroxy-N-[4-(2,5-difluorophenyl)thiazol-2-yl]benzamide]",,,,,,,inhibition at 1 µg/mL (NF-κ B; [5]): > 99.9%
"COC(=O)c1ccc(O)c(C(=O)Nc2cc(C(F)(F)F)cc(C(F)(F)F)c2)c1 [Compound No. 35, N-[3,5-bis(trifluoromethyl)phenyl]-4-hydroxyisophthalamic acid methyl ester]",,,,,,,inhibition at 1 µg/mL (NF-κ B; [5]): 88.2%; inhibition at 10 µg/mL (NF-κ B; [6]): 96.4%
"CN1CCN(c2sc(NC(=O)c3cc(Br)ccc3O)nc2C(C)(C)C)CC1 [Compound No. 206, 5-Bromo-N-{4-[(1,1-dimethyl)ethyl]-5-(4-methylpiperazin-1-yl)thiazol-2-yl)-2-hydroxybenzamide]",,,,,,,inhibition at 1 µg/mL (NF-κ B; [5]): 36.3%; inhibition at 10 µg/mL (NF-κ B; [6]): 89.6%
"O=C(Nc1ccccc1C(F)(F)F)c1cc(Cl)ccc1O [Reference Example 2, N-[2-(trifluoromethyl)phenyl]-5-chloro-2-hydroxybenzamide, reference compound]",887,14,> 1000,676,,,
O=C(Nc1cc(C(F)(F)F)cc(C(F)(F)F)c1)c1ccc(O)cc1O [Compound No. 55],,,,,10.8,88.6,
